According to patent US10603319B2, “Pyrimidine derivatives and their use in treating or preventing a respiratory syncytial virus infection” (REVIRAL LIMITED, priority 2016, dated 2020):

Experiments:
RSV A2_F = biological target: T1, RSV A2_F (Human respiratory syncytial virus A, UniProt P03420); test: RSV fusion assay (luciferase reporter, HEK 293T/17 cells transfected with A2_F); type: cell-based; conditions: Fusion activity IC50 μM, HEK 293T/17 cells, 24 hr
T1 construct: expressed in transfected cells; host or cells: HEK 293T/17
T1 sequence (P03420 137-574): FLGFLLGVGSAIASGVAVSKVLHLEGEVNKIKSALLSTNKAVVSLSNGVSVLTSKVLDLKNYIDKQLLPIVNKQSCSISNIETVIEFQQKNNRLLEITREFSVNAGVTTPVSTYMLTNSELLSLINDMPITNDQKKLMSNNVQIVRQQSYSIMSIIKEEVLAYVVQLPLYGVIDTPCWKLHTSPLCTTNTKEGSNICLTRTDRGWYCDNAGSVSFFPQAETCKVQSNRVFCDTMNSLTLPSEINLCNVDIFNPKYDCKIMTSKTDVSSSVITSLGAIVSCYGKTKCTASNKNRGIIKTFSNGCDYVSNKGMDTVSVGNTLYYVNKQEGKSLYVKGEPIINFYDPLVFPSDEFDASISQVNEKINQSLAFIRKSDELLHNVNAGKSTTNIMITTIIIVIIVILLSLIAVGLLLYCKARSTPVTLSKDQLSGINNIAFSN
T1 sequence (P03420 26-109): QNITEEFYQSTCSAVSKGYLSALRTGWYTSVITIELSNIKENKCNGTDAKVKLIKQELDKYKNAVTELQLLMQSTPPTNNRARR
Experimental: HEK 293T/17 cells were cultured in T75 culture flasks in Dulbecco's medium (DMEM) containing 10% FBS and 1× Penicillin-Streptomycin (Pen/Strep) and warmed to 37° C. prior to use. The cells were passaged by first washing briefly with 3 ml phosphate buffered saline (PBS) followed by a 4 min incubation with […] at 37° C. 7 ml media was then added to the flask and the cells dispersed via pipetting (×3) against the bottom of the flask. Two further T75 flasks were each seeded with 2×10^6 cells in 15 ml fresh media.
Cells were seeded on the T75 plates at the same density as on the 6-well plates the area of a T75 flask and one 1.75 cm radius well from a 6-well plate were compared. 7.79×2 ml of 3×10^5 cells ml^−1 was used to seed a single T75 flask.
HEK cells were removed from a T75 flask as described above. The cells were counted and diluted to 3×10^5 cells/ml in fresh media. Two T75 flasks were each seeded with 15.58 ml diluted cells.
The plasmid DNA (for pFR-Luc and pcDNA3.1_Gal4/NFκB) to be transfected into the HEK cells was first prepared in serum free media (DMEM+Pen/Strep) containing the transfection reagent Fugene 6 (Promega). Transfections were set up as follows (Luc=pFR_Luc, Gal4=pcDNA3.1+_Gal4/NFκB, A2_F=pcDNA3.1+_A2_F)
Serum free media was placed in a 1.5 ml eppendorf tube then the fugene 6 was added into the media. The tube was vortexed for 1 s before being incubated at RT for 5 min. The plasmid DNA was then added to the tube, vortexed for 1 s, then incubated at RT for 15 min
The transfection reagents were then added to the appropriate T75 flask by tipping the flask on end and adding the reagents directly to the media already in the flask. The flask was then tipped on its back so the media could be mixed thoroughly whilst not disturbing the cells before placing the flask the right way up and incubating overnight at 37° C. and 5% CO2.
Compounds were diluted (in a polypropylene round-bottomed 96 well plate) 1:3 in a twelve point dilution curve to give top [final] of either 3.3 μM, 1 μM, 500 nM 200 nM or 100 nM. The Control compound was always run at a concentration of 100 nM.
The cells were then counted and diluted to 4×10^5 cells/ml in fresh media. 50 μl of transfection population 1 cells were added to all wells of the assay plates. 100 μl diluted compound (2 rows per compound), standard curve (one row) and controls (100 nM RV (100% inhibition, four wells), DMSO (0% inhibition, eight wells)) were added to the appropriate wells. 50 μl of the diluted (4×10^5 cells/ml) transfection population 2 cells when then added to all wells.
The plates were then incubated for 24 hr at 37° C. and 5% CO2
Buffers were prepared for the luciferase assay (20 mM tricine, 10 mM MgSO4, 1 mM EDTA, 10 mM DTT) and lysis (25 mM tris-phosphate, 8 mM MgCl2, 1 mM DTT, 1% Triton X-100, 15% glycerol) and stored at −20° C.
Luminescence was measured as described:
Media was discarded into Virkon and the plates washed with 100 ul PBS per well. 20 ul/well of lysis buffer was added to each well and incubated shaking for 5 min at RT. Luciferin was added to LAAB at a dilution of 1:50 to give a working luciferin buffer. 100 μl working luciferin buffer was added to each well and luminescence was measured immediately. […]

[1] = Liver microsomal stability, rat; type: in vitro ADME, Sprague Dawley rats; conditions: male, Sprague Dawley, pooled liver microsomes, pH 7.4, 0.5 mg/mL protein, read-out: Liver Microsomal Stability (T1/2/mins) rat
Experimental: (§1) Microsomal Incubation: Experimental Procedure
(§2) Pooled human liver microsomes (pooled male and female), pooled rat liver microsomes (male Sprague Dawley rats) and pooled dog liver microsomes (male Beagle dog) are purchased from a reputable commercial supplier and stored at −80° C. prior to use.
(§3) Microsomes (final protein concentration 0.5 mg/mL), 0.1 M phosphate buffer pH 7.4 and test compound (final substrate concentration 3 μM; final DMSO concentration 0.25%) are pre-incubated at 37° C. prior to the addition of NADPH (final concentration 1 mM) to initiate the reaction. The final incubation volume is 50 μL. A control incubation is included for each compound tested where 0.1 M phosphate buffer pH 7.4 is added instead of NADPH (minus NADPH). Two control compounds are included with each species. All incubations are performed singularly for each test compound.
(§4) Compounds are incubated for 0, 5, 15, 30 and 45 min. The control (minus NADPH) is incubated for 45 min only. […] Following protein precipitation, the sample supernatants are combined in cassettes of up to 4 compounds, internal standard is added and samples analysed by LC-MS/MS. From a plot of ln peak area ratio (compound peak area/internal standard peak area) against time, the gradient of the line is determined. Subsequently, half-life and intrinsic clearance are calculated

[2] = Liver microsomal stability, dog; type: in vitro ADME; conditions: male, Beagle, pooled liver microsomes, pH 7.4, 0.5 mg/mL protein, read-out: Liver Microsomal Stability (T1/2/mins) dog
Experimental: as §1, §2, §3, §4

For `NC1CCN(c2ncc(CN3C(=O)C4(CC4)c4ccc(F)cc43)c(N[C@H]3CC[C@H](O)CC3)n2)C1` (stereo partly drawn) [Compound 2, 1′-((2-(3-Aminopyrrolidin-1-yl)-4-(((1r,4r)-4-hydroxycyclohexyl)amino)pyrimidin-5-yl)methyl)-6′-fluorospiro[cyclopropane-1,3′-indolin]-2′-one], the IC50 (RSV A2_F) was 0.237 µM, the half-life at 3 μM [1] was 2.17 h and the half-life at 3 μM [2] was > 4 h.
